Assay results as given in patent publication US12338203B2 (TAISHO PHARMACEUTICAL CO., LTD., priority 2019, dated 2025).

Biological target: T1, human LPAR1 (Homo sapiens, UniProt Q92633)
T1 construct: expressed in transfected cells
Assay: Test Example 1: antagonism against response of LPA-induced increase in intracellular Ca2+ concentration in RH7777 cells stably expressing human LPAR1
Type: cell-based
Details: RH7777 cells stably expressing human LPAR1; Fluo-4 fluorescence, FDSS6000; read-out: IC50 value (concentration producing 50% antagonism against response of LPA-induced increase in intracellular Ca2+ concentration) (converted)
Procedure: (1) Preparation of RH7777 cells stably expressing human LPAR1
The human LPAR1 expression vector was transfected into RH7777 cells to acquire human LPAR1 expressing cells.
(2) Test of antagonism against response of LPA-induced increase in intracellular Ca^2+ concentration
Cells stably expressing human LPAR1 were used for a test of antagonism against response of LPA-induced increase in intracellular Ca^2+ concentration.
The cells were seeded onto the Poly-D-Lysine 96 well black plate and incubated overnight. […] 50 μL of the Basal Buffer (1×HBSS, 20 mM HEPES, 2.5 mM Probenecid, 0.05% BSA, 0.25 mg/mL Amaranth, pH 7.4) containing the test compound was added thereto, followed by incubation at 37° C. for 30 minutes. In FDSS6000 (Hamamatsu Photonics K.K.), LPAs were added, and the change in intracellular Ca^2+ concentration was detected using the fluorescence value of a wavelength of 540 nm by an excitation wavelength of 480 nm as an indicator. […] The Rmax under […] without the test compound was used as the control value. The Rmax under Basal Buffer stimulation with no LPAs or test compounds was used as the basal value.
The percentage (%) of increase in intracellular Ca^2+ concentration was calculated by dividing the value obtained by subtracting the basal value from Rmax in the presence of LPAs and each concentration of the test compound by the value obtained by subtracting the basal value from the control value. The concentration of each test compound was plotted on the X axis and the percentage (%) of increase in intracellular Ca^2+ concentration was plotted on the Y axis, and the IC50 value was calculated by nonlinear regression using XLfit.

T1 sequence (Q92633 whole entry): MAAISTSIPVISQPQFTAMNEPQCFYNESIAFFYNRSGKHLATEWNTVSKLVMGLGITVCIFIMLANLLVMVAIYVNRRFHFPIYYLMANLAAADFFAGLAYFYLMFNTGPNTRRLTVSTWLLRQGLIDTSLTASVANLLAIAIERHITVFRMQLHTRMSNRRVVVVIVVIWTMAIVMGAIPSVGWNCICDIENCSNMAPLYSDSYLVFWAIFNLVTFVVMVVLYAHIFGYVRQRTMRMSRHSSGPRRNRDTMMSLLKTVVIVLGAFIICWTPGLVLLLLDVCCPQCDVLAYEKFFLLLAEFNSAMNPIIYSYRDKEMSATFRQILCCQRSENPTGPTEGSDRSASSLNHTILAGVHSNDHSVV

SMILES	IC50 [nM]
CCOc1cc([C@@H](C)N(CCCCc2ccccc2)C(=O)NC2(C(=O)O)CCOC2)cc(OCC)c1C (stereo partly drawn) [Example 1-150]	8
CCOc1cc([C@@H](C)N(CCCc2ccccn2)C(=O)NC2(C(=O)O)CC(F)(F)C2)cc(OCC)c1C [Example 4-27]	220
CCOc1c(C(C)=O)ccc([C@@H](C)N(CCO[C@@H](C)c2ccccc2)C(=O)N[C@]2(C(=O)O)C[C@@H](OCC)C2)c1C [Example 4-140]	5.67
CCOc1cc([C@@H](C)N(CCCC(F)(F)c2ccccc2)C(=O)NC2(C(=O)O)CCC2)cc(OCC)c1C1CC1 [Example 4-51]	1.11
CCOc1cc(C(C)N(CCCCc2ccccc2)C(=O)NC2CCC2C(=O)O)cc(OCC)c1C(C)=O (stereo not drawn) [Example 1-125]	3.09
CCOc1cc([C@@H](C)N(CCO[C@@H](C)c2ccccc2)C(=O)N[C@]2(C(=O)O)C[C@@H](OC)C2)cc(OCC)c1C(C)=O [Example 4-121]	3.35
CCOc1cc([C@@H](C)N(CCO[C@@H](C)c2cccc(Cl)c2)C(=O)NC2(C(=O)O)CC(F)(F)C2)c(Cl)c(OCC)c1C(C)=O [Example 4-177]	4.02
CCOc1cc([C@@H](C)N(CCCCc2cccnc2)C(=O)NC2(C(=O)O)CC(F)(F)C2)cc(OCC)c1C [Example 4-29]	17.6
COc1cc([C@@H](C)N(CCCCc2ccccc2)C(=O)NC2(C(=O)O)CC(F)(F)C2)cc(OC)c1C [Example 1-67]	1.6
COc1cc(CN(CCCCc2ccccc2)C(=O)NCC(C(=O)O)C(C)C)cc(OC)c1C (stereo not drawn) [Example 1-14]	5690
CCOc1cc([C@@H](C)N(CCCCc2ccccc2)C(=O)NC2(C(=O)O)CC(F)(F)C2)cc(OCC)c1C(C)O (single isomer, unassigned) [Example 1-35]	1.81
CCOc1c(C(C)=O)ccc([C@@H](C)N(CCCCc2ccccc2)C(=O)NC2(C(=O)O)CC(OCC)C2)c1C (stereo partly drawn) [Example 1-103]	4.57
CCOc1cc([C@@H](C)N(CCC(F)(F)Cc2ccccc2)C(=O)NC2(C(=O)O)CCC2)cc(OCC)c1C1CC1 [Example 4-82]	4.1
CCOc1cc([C@@H](C)N(CCCCc2ccccc2)C(=O)NC2(C(=O)O)CNC2)cc(OCC)c1C [Example 1-158, 3-({[(1R)-1-(3,5-Diethoxy-4-Methylphenyl)Ethyl](4-Phenylbutyl) Carbamoyl}Amino) Azetidine-3-Carboxylic Acid]	294
CCOc1cc([C@@H](C)N(CCOCc2ccccc2)C(=O)NC2(C(=O)O)CCC2)cc(OCC)c1C(C)=O [Example 4-101]	1.25
CCOc1c(C(C)=O)ccc([C@@H](C)N(CCCC(F)(F)c2ccccc2)C(=O)NC2(C(=O)O)CC(OCC)C2)c1C (stereo partly drawn) [Example 4-72]	3.34
CCOc1cc([C@@H](C)N(CCCCc2ccccc2)C(=O)NC2(C(=O)O)CC2)cc(OCC)c1C [Example 1-17]	23.7
CCOc1cc([C@@H](C)N(CCOCc2ccccc2)C(=O)NC2(C(=O)O)CC(OC)C2)cc(OCC)c1C(C)=O (stereo partly drawn) [Example 4-107]	4.08
CCOc1cc([C@@H](C)N(CCCCc2ccccc2)C(=O)NC2CCC(C(=O)O)C2)cc(OCC)c1C (stereo partly drawn) [Example 1-142]	49.2
CCOc1cc(C(C)N(CCCCc2ccccc2)C(=O)NC2CCC[C@@H]2C(=O)O)cc(OCC)c1C (stereo partly drawn) [Example 1-137]	102
CCOc1cc(C(C)N(CCCCc2ccccc2F)C(=O)NC2(C(=O)O)CC(F)(F)C2)cc(OCC)c1C (stereo not drawn) [Example 4-8]	8.87
CCOc1cc([C@@H](C)N(CCCCc2ccccc2)C(=O)NC2(C(=O)O)CC(N3CCOCC3)C2)cc(OCC)c1C (stereo partly drawn) [Example 1-110]	20.2
CCOc1cc([C@@H](C)N(CCCCc2ccccc2)C(=O)NC2(C(=O)O)CN(C(C)=O)C2)cc(OCC)c1C [Example 1-159, 1-Acetyl-3-({[(1R)-1-(3,5-Diethoxy-4-Methylphenyl)Ethyl](4-Phenylbutyl) Carbamoyl}Amino) Azetidine-3-Carboxylic Acid]	2.56
CCOc1cc([C@@H](C)N(CCO[C@@H](C)c2ccccc2)C(=O)NC2(C(=O)O)CC(OC)C2)cc(OCC)c1C1(O)CC1 (stereo partly drawn) [Example 4-127]	21.3

More lines, now with the values ahead:

IC50 [nM]	SMILES
344	CCOc1cc(C(C)N(CCO[C@@H](C)c2ccccc2)C(=O)NC2(C(=O)OC)CC(OCC)C2)cc(OCC)c1C(C)=O (stereo partly drawn) [Example 6-4]
2.13	CCOc1cc(C(C)N(CCOCc2ccccc2)C(=O)NC2(C(=O)O)CC(OCC)C2)c(Cl)c(OCC)c1C(C)=O (stereo not drawn) [Example 5-220]
14	CCOc1cc([C@@H](C)N(CCC(F)(F)Cc2ccccc2)C(=O)NC2(C(=O)O)CC(OC)C2)c(C)c(OCC)c1C (stereo partly drawn) [Example 5-77]
2.77	CCOc1cc([C@@H](C)N(CCO[C@@H](C)c2ccccc2)C(=O)NC2(C(=O)O)CCOCC2)c(Cl)c(OCC)c1C(C)=O [Example 5-33]
23.1	CCOc1cc(C(C)N(CCCCc2ccccc2)C(=O)NC2(C(=O)O)CC(F)(F)C2)cc2c1CCO2 (stereo not drawn) [Example 5-92]
13000	CCOc1cc(C(C)N(CCO[C@@H](C)c2ccccc2)C(=O)NC2(C(=O)OC(C)(C)C)CC(F)(F)C2)cc(OCC)c1C(C)=O (stereo partly drawn) [Example 6-16]
4.86	CCOc1cc(C(C)N(CCOC(C)c2ccccc2)C(=O)NC2(c3nn[nH]n3)CC(OC)C2)cc(OCC)c1C(C)=O (stereo not drawn) [Example 10-16]
2.91	CCOc1cc([C@@H](C)N(CCO[C@@H](C)c2ccccc2)C(=O)NC2(C(=O)O)CC(OCC)C2)c(C)c(OCC)c1C(C)=O (stereo partly drawn) [Example 5-119]
4.55	COc1cc(C(C)N(CCOCc2ccccc2)C(=O)NC2(C(=O)O)CCC2)c(C)c(OC)c1C(C)=O (stereo not drawn) [Example 5-134]
3.58	CCNc1cc(C(C)N(CCCCc2ccccc2)C(=O)NC2(C(=O)O)CCC2)cc(OCC)c1C#N (stereo not drawn) [Example 5-113]
4.84	CCOC1CC(NC(=O)N(CCOCc2ccccc2)C(C)c2cc(OC)c(C(C)=O)c(OC)c2C)(C(=O)O)C1 (stereo not drawn) [Example 5-164]
12.1	COc1cc([C@@H](C)N(CCOCc2ccccc2)C(=O)NC2(C(=O)O)CC(OC)C2)cc(OC)c1C(C)=O (stereo partly drawn) [Example 5-121]
0.548	CCOc1cc(C(C)N(CCOCc2ccccc2)C(=O)NC2(C(=O)O)CC(OC)C2)c(Cl)c(OCC)c1C1CC1 (stereo not drawn) [Example 5-200]
8.01	CCOc1cc([C@@H](C)N(CCO[C@@H](C)c2ccccc2)C(=O)N[C@]2(C(=O)O)C[C@H](OC)C2)c(Cl)c(OCC)c1C(C)O (single isomer, unassigned) [Example 5-59]
132	Cc1ccc(C(C)N(CCCCc2ccccc2)C(=O)NC2(C(=O)O)CC(F)(F)C2)cc1 (stereo not drawn) [Example 5-7]
1.65	CCOc1cc(C(C)N(CCO[C@@H](C)c2ccccc2)C(=O)NC2(C(=O)O)CC(OCC)C2)c(C)c(OCC)c1C1CC1 (stereo partly drawn) [Example 5-217]
1.62	CCOc1cc(C(C)N(CCO[C@@H](C)c2ccccc2)C(=O)NC2(C(=O)O)CC(OC)C2)c(Cl)c(OCC)c1C1CC1 (stereo partly drawn) [Example 5-202]
164	CC(c1ccc(F)cc1)N(CCCCc1ccccc1)C(=O)NC1(C(=O)O)CC(F)(F)C1 (stereo not drawn) [Example 5-6]
4520	O=C(NC1(C(=O)O)CCCC1)N(CCCCc1ccccc1)Cc1cccc(Cl)c1 [Example 5-2]
0.468	CCOc1cc([C@@H](C)N(CCOCc2ccccc2)C(=O)NC2(C(=O)O)CC(F)(F)C2)c(Cl)c(OCC)c1C(C)=O [Example 5-38]
1.74	COc1cc(C(C)N(CCOCc2ccccc2)C(=O)NC2(C(=O)O)CC(F)(F)C2)cc(OC)c1C1CC1 (stereo not drawn) [Example 5-142]
